From US20110105623A1 (Biogenic Innovations, LLC, priority 2009, published 2011)
Read-outs that look alike come from different tables or passages of the source.

Key:
[1] = tested on: normal flora found in the product; conditions: for Log Growth: rows 0.5-10% MSM
[2] = tested on: Chlorella sorokiniana; test: Algal growth by percent transmittance at 750 nm; type: cell-based
Procedure: Two species of Chlorella were examined for growth—Chlorella sorokiniana a freshwater species and Chlorella minutissima a marine species. […] Growth was measured on day 0, 1, 2, 3, 4, 5, 6, 7, 8, 9 and 10. […] The following media were purchased from UTEX Culture Collection of Algae: Enriched Salt Water Medium and Volvox Dextrose Medium.
The algae were grown for 48 hours in the appropriate medium. The initial suspension was enumerated for each alga and is referred to as the starting inoculums. Chlorella sorokiniana was at 381 million cells per milliliter and Chlorella minutissima was at 19 million cells per milliliter. One milliliter of the algal solution was placed into 9 mLs of medium and mixed by vortexing. […] The tube of algae and MSM were incubated at room temperature with exposure to sunlight. […] Each dilution of MSM for each organism was set up in and analyzed in triplicate for each time interval measured. The samples were measured by percent transmittance on a UV/VIS spectrophotometer at wavelength 750 nm. The medium stock was tested for percent transmittance background levels at every time interval were measured. The lower percent transmittance indicated a higher growth factor.

## Methylsulfonylmethane [MSM]
[1]; 0.5% MSM, day 0
  Log Growth of 40% Milk Fat: 0.00 logs
[1]; 0.5% MSM, day 7
  Log Growth of 40% Milk Fat: 0.35 logs
[1]; 0.5% MSM, day 14
  Log Growth of 40% Milk Fat: 2.32 logs
[1]; 0.5% MSM, day 21
  Log Growth of 40% Milk Fat: 4.46 logs
[1]; 0.5% MSM, day 24
  Log Growth of 40% Milk Fat: 4.02 logs
[1]; 0.5% MSM, day 28
  Log Growth of 40% Milk Fat: 1.95 logs
[1]; 1.0% MSM, day 7
  Log Growth of 40% Milk Fat: 0.00 logs
[1]; 1.0% MSM, day 14
  Log Growth of 40% Milk Fat: 2.37 logs
[1]; 1.0% MSM, day 21
  Log Growth of 40% Milk Fat: 4.35 logs
[1]; 1.0% MSM, day 24
  Log Growth of 40% Milk Fat: 3.33 logs
[1]; 1.0% MSM, day 28
  Log Growth of 40% Milk Fat: 3.86 logs
[1]; 2% Milk Fat, day 7
  Log Growth: 1.59 log
[1]; 5.0% MSM, day 0
  Log Growth of 40% Milk Fat: 0.00 logs
[1]; 5.0% MSM, day 7
  Log Growth of 40% Milk Fat: 0.80 logs
[1]; 5.0% MSM, day 14
  Log Growth of 40% Milk Fat: 0.50 logs
[1]; 5.0% MSM, day 21
  Log Growth of 40% Milk Fat: 1.25 logs
[1]; 5.0% MSM, day 24
  Log Growth of 40% Milk Fat: 1.03 logs
[1]; 5.0% MSM, day 28
  Log Growth of 40% Milk Fat: 0.35 logs
[1]; 10.0% MSM, day 0
  Log Growth of 40% Milk Fat: 0.00 logs
[1]; 10.0% MSM, day 7
  Log Growth of 40% Milk Fat: 0.00 logs
[1]; 10.0% MSM, day 14
  Log Growth of 40% Milk Fat: 1.95 logs
[1]; 10.0% MSM, day 21
  Log Growth of 40% Milk Fat: 4.45 logs
[1]; 10.0% MSM, day 24
  Log Growth of 40% Milk Fat: 0.85 logs
[1]; 10.0% MSM, day 28
  Log Growth of 40% Milk Fat: 0.35 logs
[1]; 40% milk product, Day 21, 5.0% MSM
  lower than the control by: 3.22 logs
[1]; 40% milk product, Day 21, […] MSM
  microbial load: 2.16 logs
[1]; 40% milk product, Day 28, 5.0% and 10.0% MSM
  microbial count: 0.35 logs
[1]; Nonfat Milk, day 7
  Log Growth: 1.00 log
[1]; […] MSM, day 0
  Log Growth of 40% Milk Fat: 0.00 logs
[1]; […] MSM, day 7
  Log Growth of 40% Milk Fat: 0.00 logs
[1]; […] MSM, day 14
  Log Growth of 40% Milk Fat: 0.00 logs
[1]; […] MSM, day 21
  Log Growth of 40% Milk Fat: 2.16 logs
[1]; […] MSM, day 24
  Log Growth of 40% Milk Fat: 3.79 logs
[1]; […] MSM, day 28
  Log Growth of 40% Milk Fat: 0.95 logs
[2]; MSM 0.5%, Sample Day 0
  Growth, percent transmittance at 750 nm: 47.3%
[2]; MSM 0.5%, Sample Day 1
  Growth, percent transmittance at 750 nm: 41.8%
[2]; MSM 0.5%, Sample Day 2
  Growth, percent transmittance at 750 nm: 29.3%
[2]; MSM 0.5%, Sample Day 3
  Growth, percent transmittance at 750 nm: 29.6%
[2]; MSM 0.5%, Sample Day 4
  Growth, percent transmittance at 750 nm: 19.0%
[2]; MSM 0.5%, Sample Day 5
  Growth, percent transmittance at 750 nm: 12.4%
[2]; MSM 0.5%, Sample Day 6
  Growth, percent transmittance at 750 nm: 12.5%
[2]; MSM 0.5%, Sample Day 7
  Growth, percent transmittance at 750 nm: 11.9%
[2]; MSM 0.5%, Sample Day 8
  Growth, percent transmittance at 750 nm: 12.2%
[2]; MSM 0.5%, Sample Day 9
  Growth, percent transmittance at 750 nm: 7.5%
[2]; MSM 0.5%, Sample Day 10
  Growth, percent transmittance at 750 nm: 6.4%
[2]; MSM 1%, Sample Day 0
  Growth, percent transmittance at 750 nm: 48.7%
[2]; MSM 1%, Sample Day 1
  Growth, percent transmittance at 750 nm: 42.5%
[2]; MSM 1%, Sample Day 2
  Growth, percent transmittance at 750 nm: 37.5%
[2]; MSM 1%, Sample Day 3
  Growth, percent transmittance at 750 nm: 37.5%
[2]; MSM 1%, Sample Day 4
  Growth, percent transmittance at 750 nm: 17.3%
[2]; MSM 1%, Sample Day 5
  Growth, percent transmittance at 750 nm: 13.5%
[2]; MSM 1%, Sample Day 6
  Growth, percent transmittance at 750 nm: 13.0%
[2]; MSM 1%, Sample Day 7
  Growth, percent transmittance at 750 nm: 12.5%
[2]; MSM 1%, Sample Day 8
  Growth, percent transmittance at 750 nm: 12.4%
[2]; MSM 1%, Sample Day 9
  Growth, percent transmittance at 750 nm: 7.8%
[2]; MSM 1%, Sample Day 10
  Growth, percent transmittance at 750 nm: 6.6%
[2]; MSM 5%, Sample Day 0
  Growth, percent transmittance at 750 nm: 35.6%
[2]; MSM 5%, Sample Day 1
  Growth, percent transmittance at 750 nm: 31.2%
[2]; MSM 5%, Sample Day 2
  Growth, percent transmittance at 750 nm: 27.4%
[2]; MSM 5%, Sample Day 3
  Growth, percent transmittance at 750 nm: 21.4%
[2]; MSM 5%, Sample Day 4
  Growth, percent transmittance at 750 nm: 18.2%
[2]; MSM 5%, Sample Day 5
  Growth, percent transmittance at 750 nm: 15.7%
[2]; MSM 5%, Sample Day 6
  Growth, percent transmittance at 750 nm: 15.9%
[2]; MSM 5%, Sample Day 7
  Growth, percent transmittance at 750 nm: 16.3%
[2]; MSM 5%, Sample Day 8
  Growth, percent transmittance at 750 nm: 17.0%
